Data published in patent publication US20250230193A1, “CYCLIC COMPOUND HAVING SELECTIVE KRAS INHIBITORY EFFECT ON HRAS AND NRAS” (CHUGAI SEIYAKU KABUSHIKI KAISHA, priority 2022, published 2025).
*1 amine or outer side, *2 acyl side, *3 side chain or, on linkers, in order; H or OH if unused. Where a SMILES comes first, the peptide text is derived from it. Bridges are numbered along the chain shown (N, C = ends). [ ]: non-standard residue; d: D form. The star is where a group is joined. hPhe(3,5-F2-4-CF3) = N[C@@H](CCc1cc(F)c(C(F)(F)F)c(F)c1)C(=O)O; hPhe(3-Cl-4-CF3) = N[C@@H](CCc1ccc(C(F)(F)F)c(Cl)c1)C(=O)O; NPrPhe(4-CF3) = CCCN[C@@H](Cc1ccc(C(F)(F)F)cc1)C(=O)O; NMeAbu(4,4,4-F3) = CN[C@@H](CC(F)(F)F)C(=O)O; X16 = O=C([C@@H](N[*:1])C1CC(F)(F)C1)[*:2]; NMeGly(cPent) = CN[C@H](C(=O)O)C1CCCC1; X13 = CCC[C@](C)(N[*:1])C(=O)[*:2]; Nva(3-Et) = CCC(CC)[C@H](N)C(=O)O; αMeI = CC[C@H](C)[C@](C)(N)C(=O)O; Gly(N-propargyl) = C#CCNCC(=O)O; X15 = O=C(CN(CC(F)F)[*:1])[*:2]; NMeD = CN[C@@H](CC(=O)O)C(=O)O; NMeL = CN[C@@H](CC(C)C)C(=O)O; X51 = O=C(CN(CCF)[*:1])[*:2]; αMeV = CC(C)[C@](C)(N)C(=O)O; Iva = CC[C@](C)(N)C(=O)O; Morpholide = C1CN(*)CCO1; NAllylGly = C=CCNCC(=O)O; Ac5c = NC1(C(=O)O)CCCC1; Sar = CNCC(=O)O

Experiments:
[1] = molecular target: GDP-bound NRAS wild-type protein (Homo sapiens, UniProt P01111); assay: Binding to NRAS by surface plasmon resonance (SPR), Single Cycle Kinetics; details: KD ratio NRAS/KRAS, SPR
GDP-bound NRAS wild-type protein, sequence (P01111 whole entry): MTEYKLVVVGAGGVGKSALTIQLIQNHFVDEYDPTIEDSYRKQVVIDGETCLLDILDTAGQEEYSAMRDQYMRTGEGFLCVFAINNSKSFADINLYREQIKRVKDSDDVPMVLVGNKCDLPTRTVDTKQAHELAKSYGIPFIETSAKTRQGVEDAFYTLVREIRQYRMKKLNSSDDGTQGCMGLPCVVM

[2] = molecular target: GDP-bound HRAS wild-type protein (Homo sapiens, UniProt P01112); assay: Binding to HRAS by surface plasmon resonance (SPR), Single Cycle Kinetics; details: KD ratio HRAS/KRAS, SPR
GDP-bound HRAS wild-type protein, sequence (P01112 whole entry): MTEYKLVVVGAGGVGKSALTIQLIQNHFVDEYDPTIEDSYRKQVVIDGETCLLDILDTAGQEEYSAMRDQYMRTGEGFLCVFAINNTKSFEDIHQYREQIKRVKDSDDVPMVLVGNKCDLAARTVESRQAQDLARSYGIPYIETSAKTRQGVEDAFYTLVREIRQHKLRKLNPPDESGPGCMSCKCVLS

Row | SMILES | NRAS/KRAS (ratio of KD value with respect to GDP-bound NRAS wild-type protein to KD value with respect to KRAS) [1] | HRAS/KRAS (ratio of KD value with respect to GDP-bound HRAS wild-type protein to KD value with respect to KRAS) [2]
1 | CCCN1C(=O)CN(C)C(=O)CN(C)C(=O)[C@H]([C@@H](C)CC)NC(=O)[C@H](CC(C)C)N(C)C(=O)C[C@@H](C(=O)N(C)C)N(C)C(=O)[C@H](CC(F)(F)F)N(C)C(=O)C2(CCCC2)NC(=O)[C@@H]2CCCN2C(=O)[C@H](CCc2cc(F)c(C(F)(F)F)c(F)c2)NC(=O)CN(C)C(=O)[C@@H]1Cc1ccc(C(F)(F)F)cc1 [PP0746] ([NMeL]I[Sar][Sar][NPrPhe(4-CF3)][Sar][hPhe(3,5-F2-4-CF3)]P[Ac5c][NMeAbu(4,4,4-F3)][NMeD]-NMe2; lactam N-11) | B (a compound having 3 or more and less than 10 is denoted as B) | C (A compound having a KD ratio of 0.1 or more and less than 3 is denoted as C)
2 | CCCN1C(=O)CN(C)C(=O)CN(C)C(=O)[C@H](C(CC)CC)NC(=O)[C@H](CC(C)C)N(C)C(=O)C[C@@H](C(=O)N(C)C)N(C)C(=O)[C@H](C2CCCC2)N(C)C(=O)C2(CCCC2)NC(=O)[C@@H]2CCCN2C(=O)[C@H](CCc2cc(F)c(C(F)(F)F)c(F)c2)NC(=O)CN(C)C(=O)[C@@H]1Cc1ccc(C(F)(F)F)cc1 [PP0747] ([NMeL][Nva(3-Et)][Sar][Sar][NPrPhe(4-CF3)][Sar][hPhe(3,5-F2-4-CF3)]P[Ac5c][NMeGly(cPent)][NMeD]-NMe2; lactam N-11) | B (a compound having 3 or more and less than 10 is denoted as B) | C (A compound having a KD ratio of 0.1 or more and less than 3 is denoted as C)
3 | CCCN1C(=O)CN(C)C(=O)CN(C)C(=O)[C@H](C2CC(F)(F)C2)NC(=O)[C@H](CC(C)C)N(C)C(=O)C[C@@H](C(=O)N(C)C)N(C)C(=O)[C@H](C2CCCC2)N(C)C(=O)C2(CCCC2)NC(=O)[C@@H]2CCCN2C(=O)[C@H](CCc2cc(F)c(C(F)(F)F)c(F)c2)NC(=O)CN(C)C(=O)[C@@H]1Cc1ccc(C(F)(F)F)cc1 [PP0748] ([NMeL][X16][Sar][Sar][NPrPhe(4-CF3)][Sar][hPhe(3,5-F2-4-CF3)]P[Ac5c][NMeGly(cPent)][NMeD]-NMe2; lactam N-11) | B (a compound having 3 or more and less than 10 is denoted as B) | B (a compound having 3 or more and less than 10 is denoted as B)
4 | C=CCN1CC(=O)N(C)CC(=O)N(CCC)[C@@H](Cc2ccc(C(F)(F)F)cc2)C(=O)N(C)CC(=O)N[C@@H](CCc2ccc(C(F)(F)F)c(Cl)c2)C(=O)N2CCC[C@H]2C(=O)NC2(CCCC2)C(=O)N(C)[C@@H](C2CCCC2)C(=O)N(C)[C@H](C(=O)N2CCOCC2)CC(=O)N(C)[C@@H](CC(C)C)C(=O)N[C@@H]([C@@H](C)CC)C1=O [PP0749] ([NMeL]I[NAllylGly][Sar][NPrPhe(4-CF3)][Sar][hPhe(3-Cl-4-CF3)]P[Ac5c][NMeGly(cPent)][NMeD]-Morpholide; lactam N-11) | B (a compound having 3 or more and less than 10 is denoted as B) | C (A compound having a KD ratio of 0.1 or more and less than 3 is denoted as C)
5 | C#CCN1CC(=O)N(C)CC(=O)N(CCC)[C@@H](Cc2ccc(C(F)(F)F)cc2)C(=O)N(C)CC(=O)N[C@@H](CCc2ccc(C(F)(F)F)c(Cl)c2)C(=O)N2CCC[C@H]2C(=O)NC2(CCCC2)C(=O)N(C)[C@@H](C2CCCC2)C(=O)N(C)[C@H](C(=O)N2CCOCC2)CC(=O)N(C)[C@@H](CC(C)C)C(=O)N[C@@H]([C@@H](C)CC)C1=O [PP0750] ([NMeL]I[Gly(N-propargyl)][Sar][NPrPhe(4-CF3)][Sar][hPhe(3-Cl-4-CF3)]P[Ac5c][NMeGly(cPent)][NMeD]-Morpholide; lactam N-11) | B (a compound having 3 or more and less than 10 is denoted as B) | C (A compound having a KD ratio of 0.1 or more and less than 3 is denoted as C)
6 | CCCN1C(=O)CN(C)C(=O)CN(CCF)C(=O)[C@H]([C@@H](C)CC)NC(=O)[C@H](CC(C)C)N(C)C(=O)C[C@@H](C(=O)N2CCOCC2)N(C)C(=O)[C@H](C2CCCC2)N(C)C(=O)C2(CCCC2)NC(=O)[C@@H]2CCCN2C(=O)[C@H](CCc2ccc(C(F)(F)F)c(Cl)c2)NC(=O)CN(C)C(=O)[C@@H]1Cc1ccc(C(F)(F)F)cc1 [PP0751] ([NMeL]I[X51][Sar][NPrPhe(4-CF3)][Sar][hPhe(3-Cl-4-CF3)]P[Ac5c][NMeGly(cPent)][NMeD]-Morpholide; lactam N-11) | B (a compound having 3 or more and less than 10 is denoted as B) | C (A compound having a KD ratio of 0.1 or more and less than 3 is denoted as C)
7 | CCCN1C(=O)CN(C)C(=O)CN(CC(F)F)C(=O)[C@H]([C@@H](C)CC)NC(=O)[C@H](CC(C)C)N(C)C(=O)C[C@@H](C(=O)N2CCOCC2)N(C)C(=O)[C@H](C2CCCC2)N(C)C(=O)C2(CCCC2)NC(=O)[C@@H]2CCCN2C(=O)[C@H](CCc2ccc(C(F)(F)F)c(Cl)c2)NC(=O)CN(C)C(=O)[C@@H]1Cc1ccc(C(F)(F)F)cc1 [PP0752] ([NMeL]I[X15][Sar][NPrPhe(4-CF3)][Sar][hPhe(3-Cl-4-CF3)]P[Ac5c][NMeGly(cPent)][NMeD]-Morpholide; lactam N-11) | B (a compound having 3 or more and less than 10 is denoted as B) | B (a compound having 3 or more and less than 10 is denoted as B)
8 | CCCN1C(=O)CN(C)C(=O)CN(C)C(=O)[C@H]([C@@H](C)CC)NC(=O)[C@H](CC(C)C)N(C)C(=O)C[C@@H](C(=O)N2CCOCC2)N(C)C(=O)[C@H](C2CCCC2)N(C)C(=O)C2(CCCC2)NC(=O)[C@@H]2CCCN2C(=O)[C@H](CCc2cc(F)c(C(F)(F)F)c(F)c2)NC(=O)CN(C)C(=O)[C@@H]1Cc1ccc(C(F)(F)F)cc1 [PP0753] ([NMeL]I[Sar][Sar][NPrPhe(4-CF3)][Sar][hPhe(3,5-F2-4-CF3)]P[Ac5c][NMeGly(cPent)][NMeD]-Morpholide; lactam N-11) | B (a compound having 3 or more and less than 10 is denoted as B) | C (A compound having a KD ratio of 0.1 or more and less than 3 is denoted as C)
9 | CCCN1C(=O)CN(C)C(=O)CN(C)C(=O)[C@H]([C@@H](C)CC)NC(=O)[C@H](CC(C)C)N(C)C(=O)C[C@@H](C(=O)N2CCOCC2)N(C)C(=O)[C@H](C2CCCC2)N(C)C(=O)[C@](C)(CC)NC(=O)[C@@H]2CCCN2C(=O)[C@H](CCc2cc(F)c(C(F)(F)F)c(F)c2)NC(=O)CN(C)C(=O)[C@@H]1Cc1ccc(C(F)(F)F)cc1 [PP0754] ([NMeL]I[Sar][Sar][NPrPhe(4-CF3)][Sar][hPhe(3,5-F2-4-CF3)]P[Iva][NMeGly(cPent)][NMeD]-Morpholide; lactam N-11) | B (a compound having 3 or more and less than 10 is denoted as B) | C (A compound having a KD ratio of 0.1 or more and less than 3 is denoted as C)
10 | CCCN1C(=O)CN(C)C(=O)CN(C)C(=O)[C@H]([C@@H](C)CC)NC(=O)[C@H](CC(C)C)N(C)C(=O)C[C@@H](C(=O)N2CCOCC2)N(C)C(=O)[C@H](C2CCCC2)N(C)C(=O)[C@](C)(C(C)C)NC(=O)[C@@H]2CCCN2C(=O)[C@H](CCc2cc(F)c(C(F)(F)F)c(F)c2)NC(=O)CN(C)C(=O)[C@@H]1Cc1ccc(C(F)(F)F)cc1 [PP0756] ([NMeL]I[Sar][Sar][NPrPhe(4-CF3)][Sar][hPhe(3,5-F2-4-CF3)]P[αMeV][NMeGly(cPent)][NMeD]-Morpholide; lactam N-11) | B (a compound having 3 or more and less than 10 is denoted as B) | B (a compound having 3 or more and less than 10 is denoted as B)
11 | CCCN1C(=O)CN(C)C(=O)CN(C)C(=O)[C@H]([C@@H](C)CC)NC(=O)[C@H](CC(C)C)N(C)C(=O)C[C@@H](C(=O)N2CCOCC2)N(C)C(=O)[C@H](C2CCCC2)N(C)C(=O)[C@](C)([C@@H](C)CC)NC(=O)[C@@H]2CCCN2C(=O)[C@H](CCc2cc(F)c(C(F)(F)F)c(F)c2)NC(=O)CN(C)C(=O)[C@@H]1Cc1ccc(C(F)(F)F)cc1 [PP0757] ([NMeL]I[Sar][Sar][NPrPhe(4-CF3)][Sar][hPhe(3,5-F2-4-CF3)]P[αMeI][NMeGly(cPent)][NMeD]-Morpholide; lactam N-11) | B (a compound having 3 or more and less than 10 is denoted as B) | C (A compound having a KD ratio of 0.1 or more and less than 3 is denoted as C)
12 | CCCN1C(=O)CN(C)C(=O)CN(C)C(=O)[C@H]([C@@H](C)CC)NC(=O)[C@H](CC(C)C)N(C)C(=O)C[C@@H](C(=O)N2CCOCC2)N(C)C(=O)[C@H](C2CCCC2)N(C)C(=O)[C@](C)(CCC)NC(=O)[C@@H]2CCCN2C(=O)[C@H](CCc2cc(F)c(C(F)(F)F)c(F)c2)NC(=O)CN(C)C(=O)[C@@H]1Cc1ccc(C(F)(F)F)cc1 [PP0758] ([NMeL]I[Sar][Sar][NPrPhe(4-CF3)][Sar][hPhe(3,5-F2-4-CF3)]P[X13][NMeGly(cPent)][NMeD]-Morpholide; lactam N-11) | B (a compound having 3 or more and less than 10 is denoted as B) | C (A compound having a KD ratio of 0.1 or more and less than 3 is denoted as C)
